The source of these data is patent US7572786B2, “Substituted 1-piperidin-3-yl-4-piperidin-4-yl-piperazine derivatives and their use as neurokinin antagonists” (Janssen Pharmaceutica, N.V., priority 2002, dated 2009).

Each structure is given as a SMILES string.

Format in all cases: cell-based
Assay [1] addresses T1, NK3 (Homo sapiens, UniProt P29371).
T1 sequence (P29371 1-465): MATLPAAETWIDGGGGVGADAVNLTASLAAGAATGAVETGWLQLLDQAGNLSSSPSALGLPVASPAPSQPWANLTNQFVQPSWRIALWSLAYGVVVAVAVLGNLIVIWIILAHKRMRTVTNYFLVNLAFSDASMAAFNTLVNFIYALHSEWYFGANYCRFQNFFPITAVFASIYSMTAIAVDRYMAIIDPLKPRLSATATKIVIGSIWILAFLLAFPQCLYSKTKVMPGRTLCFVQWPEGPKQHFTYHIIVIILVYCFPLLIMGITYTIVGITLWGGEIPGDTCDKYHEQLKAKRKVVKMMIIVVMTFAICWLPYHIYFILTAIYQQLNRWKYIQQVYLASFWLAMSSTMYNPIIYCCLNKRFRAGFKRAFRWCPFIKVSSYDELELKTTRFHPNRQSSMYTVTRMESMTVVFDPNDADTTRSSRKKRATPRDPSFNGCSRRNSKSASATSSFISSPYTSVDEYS
As to the kind of experiment: Signal transduction (ST), intracellular Ca++ (FLIPR), NK3. The following applies: read-out: pIC50 NK3 (converted). How it is done:
[The source words this procedure for another target and reports this target under the same test.] (§1) This test evaluates in vitro functional NK1 antagonistic activity. For the measurements of intracellular Ca^++ concentrations the cells were grown on 96-well (black wall/transparent bottom) plates from Costar for 2 days until they reached confluence. The cells were loaded with 2 μM Fluo3 in DMEM containing 0.1% BSA and 2.5 mM probenecid for 1 h at 37° C. […] The cells were preincubated with a concentration range of antagonists for 20 min at RT and Ca^++-signals after addition of the agonists were measured in a Fluorescence Image Plate Reader (FLIPR from Molecular Devices, Crawley, England). The peak of the Ca^++-transient was considered as the relevant signal and the mean values of corresponding wells were analysed as described below.
(§2) The sigmoidal dose response curves were analysed by computerised curve-fitting, using the GraphPad Program. […] For antagonist responses the IC50-value was calculated using non-linear regression.

In assay [2] the target is T2, NK2 (Homo sapiens, UniProt P21452).
T2 sequence (P21452 1-398): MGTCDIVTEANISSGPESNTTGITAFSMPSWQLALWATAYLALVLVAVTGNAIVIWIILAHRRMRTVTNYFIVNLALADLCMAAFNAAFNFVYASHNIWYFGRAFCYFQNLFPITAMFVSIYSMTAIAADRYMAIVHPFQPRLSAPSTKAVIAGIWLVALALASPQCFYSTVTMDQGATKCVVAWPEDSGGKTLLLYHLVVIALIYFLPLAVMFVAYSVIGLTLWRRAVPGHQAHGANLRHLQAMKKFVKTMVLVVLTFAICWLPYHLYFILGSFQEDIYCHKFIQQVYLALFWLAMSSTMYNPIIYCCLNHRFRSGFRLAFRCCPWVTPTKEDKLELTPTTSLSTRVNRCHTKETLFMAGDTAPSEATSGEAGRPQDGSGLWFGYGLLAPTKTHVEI
In words: Signal transduction (ST), intracellular Ca++ (FLIPR), NK2. The conditions noted are these: for IC50: read-out: pIC50 NK2 (converted). How it is done: [The source words this procedure for another target and reports this target under the same test.] as §1, §2

For assay [3], the target named is NK1 (Homo sapiens, UniProt P25103). As to the kind of experiment: Signal transduction (ST), intracellular Ca++ (FLIPR), NK1 antagonism. The following applies: for IC50: read-out: pIC50 NK1 (converted). How it is done: as §1, §2
Sequence of NK1 (P25103 whole entry): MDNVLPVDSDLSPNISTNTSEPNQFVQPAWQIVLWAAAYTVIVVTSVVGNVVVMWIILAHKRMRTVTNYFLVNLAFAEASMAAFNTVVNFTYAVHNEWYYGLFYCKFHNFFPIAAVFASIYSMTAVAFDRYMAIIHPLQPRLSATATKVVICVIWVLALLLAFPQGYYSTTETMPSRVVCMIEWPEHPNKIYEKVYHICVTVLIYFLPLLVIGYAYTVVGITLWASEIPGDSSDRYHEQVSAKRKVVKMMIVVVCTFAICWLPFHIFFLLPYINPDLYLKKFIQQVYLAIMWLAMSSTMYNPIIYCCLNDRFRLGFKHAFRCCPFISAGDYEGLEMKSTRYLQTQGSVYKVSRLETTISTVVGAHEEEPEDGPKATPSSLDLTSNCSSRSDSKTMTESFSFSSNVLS

Turning to `O=C(c1ccccc1F)N1CCCC(N2CCN([C@H]3CCN(C(=O)c4cc(C(F)(F)F)cc(C(F)(F)F)c4)[C@H](Cc4ccccc4)C3)CC2)C1` (some centres unmarked) [Compound 9], the IC50 in assay [1] is 794 nM; in assay [2], 2510 nM; in assay [3], 15.8 nM.

Take `O=C(c1ccccc1Cl)N1CCCC(N2CCN([C@H]3CCN(C(=O)c4cc(C(F)(F)F)cc(C(F)(F)F)c4)[C@H](Cc4ccccc4)C3)CC2)C1` (some centres unmarked) [Compound 10]: the IC50 was 501 nM in assay [1], 3980 nM in assay [2] and 25.1 nM in assay [3].

For `Cc1ccccc1C(=O)N1CCCC(N2CCN([C@H]3CCN(C(=O)c4cc(C(F)(F)F)cc(C(F)(F)F)c4)[C@H](Cc4ccccc4)C3)CC2)C1` (some centres unmarked) [Compound 11], the IC50 in assay [1] is 1000 nM; in assay [2], 3160 nM; in assay [3], 20 nM.

Consider `O=C(C1CC1)N1CCCC(N2CCN([C@H]3CCN(C(=O)c4cc(C(F)(F)F)cc(C(F)(F)F)c4)[C@H](Cc4ccccc4)C3)CC2)C1` (some centres unmarked) [Compound 15], for which the IC50 is 158 nM in assay [1], 6310 nM in assay [2] and 12.6 nM in assay [3].

Consider `O=C(c1ccoc1)N1CCCC(N2CCN(C3CCN(C(=O)c4cc(C(F)(F)F)cc(C(F)(F)F)c4)C(Cc4ccccc4)C3)CC2)C1` (centres unmarked) [Compound 17], for which the IC50 was 2510 nM in assay [1] and 31.6 nM in assay [3].

With `O=C(c1ccco1)N1CCCC(N2CCN([C@H]3CCN(C(=O)c4cc(C(F)(F)F)cc(C(F)(F)F)c4)[C@H](Cc4ccccc4)C3)CC2)C1` (some centres unmarked) [Compound 18], the IC50 in assay [1] was 2510 nM; in assay [3], 20 nM.

Take `Cc1occc1C(=O)N1CCCC(N2CCN([C@H]3CCN(C(=O)c4cc(C(F)(F)F)cc(C(F)(F)F)c4)[C@H](Cc4ccccc4)C3)CC2)C1` (some centres unmarked) [Compound 19]: the IC50 was 2000 nM in assay [1] and 25.1 nM in assay [3].

`O=C(c1cccs1)N1CCCC(N2CCN([C@H]3CCN(C(=O)c4cc(C(F)(F)F)cc(C(F)(F)F)c4)[C@H](Cc4ccccc4)C3)CC2)C1` (some centres unmarked) [Compound 20]: the values for the IC50 in assay [1], in assay [2] and in assay [3] were 251 nM, 2000 nM and 31.6 nM, respectively.

On to `O=C(c1cc(C(F)(F)F)cc(C(F)(F)F)c1)N1CC[C@H](N2CCN(C3CCCN(C(=O)n4ccnc4)C3)CC2)C[C@H]1Cc1ccccc1` (some centres unmarked) [Compound 21], for which the figures for the IC50 in assay [1] and in assay [3] were 1260 nM and 20 nM, respectively.

In the case of `Cc1nnsc1C(=O)N1CCCC(N2CCN([C@H]3CCN(C(=O)c4cc(C(F)(F)F)cc(C(F)(F)F)c4)[C@H](Cc4ccccc4)C3)CC2)C1` (some centres unmarked) [Compound 22], the figures for the IC50 in assay [1], in assay [2] and in assay [3] were 501 nM, 2510 nM and 10 nM, respectively.

For the compound `O=C(c1cccnc1)N1CCCC(N2CCN([C@H]3CCN(C(=O)c4cc(C(F)(F)F)cc(C(F)(F)F)c4)[C@H](Cc4ccccc4)C3)CC2)C1` (some centres unmarked) [Compound 23], the values for the IC50 in assay [1], in assay [2] and in assay [3] were 2000 nM, 3980 nM and 20 nM, respectively.

`O=C(C(=O)N1CCCC(N2CCN(C3CCN(C(=O)c4cc(C(F)(F)F)cc(C(F)(F)F)c4)C(Cc4ccccc4)C3)CC2)C1)c1ccco1` (centres unmarked) [Compound 24]: the IC50 in assay [1] is 3980 nM; in assay [3] it was 25.1 nM.

As to `O=C(c1cc(C(F)(F)F)cc(C(F)(F)F)c1)N1CC[C@H](N2CCN(C3CCCN(S(=O)(=O)c4ccccc4Cl)C3)CC2)C[C@H]1Cc1ccccc1` (some centres unmarked) [Compound 27], the results for the IC50 in assay [1] and in assay [3] were 1260 nM and 20 nM, respectively.

Consider `COc1ccc(C)cc1S(=O)(=O)N1CCCC(N2CCN([C@H]3CCN(C(=O)c4cc(C(F)(F)F)cc(C(F)(F)F)c4)[C@H](Cc4ccccc4)C3)CC2)C1` (some centres unmarked) [Compound 31], for which the figures for the IC50 in assay [1] and in assay [3] were 3160 nM and 25.1 nM, respectively.

Consider `Cc1csc(C)c1S(=O)(=O)N1CCCC(N2CCN([C@H]3CCN(C(=O)c4cc(C(F)(F)F)cc(C(F)(F)F)c4)[C@H](Cc4ccccc4)C3)CC2)C1` (some centres unmarked) [Compound 33], for which the IC50 in assay [1] is 1000 nM; in assay [3] it was 39.8 nM.

As to `O=C(c1cc(C(F)(F)F)cc(C(F)(F)F)c1)N1CC[C@H](N2CCN(C3CCCN(S(=O)(=O)c4ccc(-c5ccccn5)s4)C3)CC2)C[C@H]1Cc1ccccc1` (some centres unmarked) [Compound 34], the values for the IC50 in assay [1] and in assay [3] were 2000 nM and 50.1 nM, respectively.

Regarding `CC(C)S(=O)(=O)N1CCCC(N2CCN([C@H]3CCN(C(=O)c4cc(C(F)(F)F)cc(C(F)(F)F)c4)[C@H](Cc4ccccc4)C3)CC2)C1` (some centres unmarked) [Compound 35], the IC50 in assay [1] was 2000 nM; in assay [3], 10 nM.

Take `Cc1cc(C(=O)N2CCCC(N3CCN([C@H]4CCN(C(=O)c5cc(C(F)(F)F)cc(C(F)(F)F)c5)[C@H](Cc5ccccc5)C4)CC3)C2)n(C)n1` (some centres unmarked) [Compound 42]: the IC50 in assay [1] was 2510 nM; in assay [3] it was 7.94 nM.

With `Cc1c(S(=O)(=O)N2CCCC(N3CCN([C@H]4CCN(C(=O)c5cc(C(F)(F)F)cc(C(F)(F)F)c5)[C@H](Cc5ccccc5)C4)CC3)C2)cnn1-c1ccccc1` (some centres unmarked) [Compound 44], the IC50 in assay [1] is 5010 nM; in assay [3], 63.1 nM.

For the compound `O=C(c1cc(C(F)(F)F)cc(C(F)(F)F)c1)N1CC[C@H](N2CCN(C3CCCN(S(=O)(=O)c4ccc(COCc5ccccc5)cc4)C3)CC2)C[C@H]1Cc1ccccc1` (some centres unmarked) [Compound 58], the IC50 in assay [2] is 2000 nM; in assay [3], 251 nM.

For `CC(=O)N1CCC[C@H]1C(=O)N1CCCC(N2CCN([C@H]3CCN(C(=O)c4cc(C(F)(F)F)cc(C(F)(F)F)c4)[C@H](Cc4ccccc4)C3)CC2)C1` (some centres unmarked) [Compound 60], the IC50 in assay [1] is 6310 nM; in assay [3], 5.01 nM.

Turning to `O=C(c1cc(C(F)(F)F)cc(C(F)(F)F)c1)N1CC[C@H](N2CCN(C3CCCN(S(=O)(=O)c4occc4COCc4ccccc4)C3)CC2)C[C@H]1Cc1ccccc1` (some centres unmarked) [Compound 90], the “pIC50 NK2” value in assay [2] was 5.7. For the same compound, the “pIC50 NK1” value in assay [3] was 6.8.

With `O=C(c1ccc(CCOCc2ccccc2)s1)N1CCCC(N2CCN(C3CCN(C(=O)c4cc(C(F)(F)F)cc(C(F)(F)F)c4)C(Cc4ccccc4)C3)CC2)C1` (centres unmarked) [Compound 93], the IC50 is 5010 nM in assay [1] and 126 nM in assay [3].

On to `CC(C)N/C(=C\[N+](=O)[O-])N1CCCC(N2CCN(C3CCN(C(=O)c4cc(C(F)(F)F)cc(C(F)(F)F)c4)C(Cc4ccccc4)C3)CC2)C1` (centres unmarked) [Compound 103], for which the IC50 is 6310 nM in assay [2] and 10 nM in assay [3].

As for `O=C(c1cc(C(F)(F)F)cc(C(F)(F)F)c1)N1CC[C@H](N2CCN(C3CCCN(S(=O)(=O)c4ccc(O)c(F)c4)C3)CC2)C[C@H]1Cc1ccccc1` (some centres unmarked) [Compound 107], the IC50 is 1260 nM in assay [1] and 15.8 nM in assay [3].

Consider `O=C(c1cc(C(F)(F)F)cc(C(F)(F)F)c1)N1CC[C@H](N2CCCN(C3CCCN(Cc4ccccc4)C3)CC2)C[C@H]1Cc1ccccc1` (some centres unmarked) [Compound 111], for which the IC50 is 7940 nM in assay [1] and 251 nM in assay [3].

`O=C(C1CC1)N1CCCC(N2CCCN([C@@H]3CCN(C(=O)c4cc(C(F)(F)F)cc(C(F)(F)F)c4)[C@H](Cc4ccccc4)C3)CC2)C1` (some centres unmarked) [Compound 114]: the IC50 is 7940 nM in assay [1] and 126 nM in assay [3].

In the case of `O=C(c1ccccc1Cl)N1CCCC(N2CCCN([C@H]3CCN(C(=O)c4cc(C(F)(F)F)cc(C(F)(F)F)c4)[C@H](Cc4ccccc4)C3)CC2)C1` (some centres unmarked) [Compound 118], the IC50 was 2510 nM in assay [1] and 63.1 nM in assay [3].

With `O=C(c1cc(C(F)(F)F)cc(C(F)(F)F)c1)N1CC[C@@H](N2CCCN(C3CCCN(S(=O)(=O)c4cccs4)C3)CC2)C[C@H]1Cc1ccccc1` (some centres unmarked) [Compound 120], the IC50 in assay [1] was 7940 nM; in assay [3], 200 nM.
